Experiments:
Type in all cases: biochemical
[1] = molecular target: T1, carboxylate reductase of SEQ ID NO: 2 (Mycobacterium marinum) (Mycobacterium marinum, UniProt B2HN69); assay: Carboxylate reductase enzyme activity assay, glutarate methyl ester as substrate (NADPH consumption at 340 nm); details: 2 mM glutarate methyl ester, 1 mM NADPH, 1 mM ATP, pH 7.5, room temperature 20 min; enhanced by gene product of sfp; against empty vector control
T1 construct: His-tag (N); made in house; host or cells: E. coli BL21[DE3], pET Duet vector
Method: (§1) A nucleotide sequence encoding a His-tag was added to the genes from Mycobacterium marinum, Mycobacterium smegmatis, Segniliparus rugosus, Mycobacterium massiliense, and Segniliparus rotundus that encode the carboxylate reductases of SEQ ID NOs: 2-4, 6 and 7, respectively (GenBank Accession Nos. ACC40567.1, ABK71854.1, EFV11917.1, EIV11143.1, and ADG98140.1, respectively) (see FIG. 8) such that N-terminal HIS tagged carboxylate reductases could be produced. Each of the modified genes was cloned into a pET Duet expression vector alongside a sfp gene encoding a His-tagged phosphopantetheine transferase from Bacillus subtilis, both under control of the T7 promoter. Each expression vector was transformed into a BL21[DE3] E. coli host along with the expression vectors from Example 2. Each resulting recombinant E. coli strain was cultivated at 37° C. in a 250 mL shake flask culture containing 50 mL LB media and antibiotic selection pressure, with shaking at 230 rpm. Each culture was induced overnight at 37° C. using an auto-induction media.
(§2) The pellet from each induced shake flask culture was harvested via centrifugation. Each pellet was resuspended and lysed via sonication. The cell debris was separated from the supernatant via centrifugation. The carboxylate reductases and phosphopantetheine transferase were purified from the supernatant using Ni-affinity chromatography, diluted 10-fold into 50 mM HEPES buffer (pH=7.5) and concentrated via ultrafiltration.
(§3) The enzyme activity assay was performed in triplicate in a buffer composed of a final concentration of 50 mM HEPES buffer (pH=7.5), 2 mM glutarate methyl ester, 10 mM MgCl2, 1 mM ATP and 1 mM NADPH. The enzyme activity assay reaction was initiated by adding purified carboxylate reductase and phosphopantetheine transferase or the empty vector control to the assay buffer containing the glutarate methyl ester and then incubated at room temperature for 20 min. The consumption of NADPH was monitored by absorbance at 340 nm.

[2] = system: carboxylate reductase of SEQ ID NO: 3 (Mycobacterium smegmatis); assay: as above; details: 2 mM glutarate methyl ester, 1 mM NADPH, 1 mM ATP, pH 7.5, room temperature 20 min; enhanced by gene product of sfp; against empty vector control
Method: as §1, §2, §3

[3] = system: carboxylate reductase of SEQ ID NO: 6 (Mycobacterium massiliense); assay: as above; details: 2 mM glutarate methyl ester, 1 mM NADPH, 1 mM ATP, pH 7.5, room temperature 20 min; enhanced by gene product of sfp; against empty vector control
Method: as §1, §2, §3

[4] = system: carboxylate reductase of SEQ ID NO: 7 (Segniliparus rotundus); assay: as above; details: 2 mM glutarate methyl ester, 1 mM NADPH, 1 mM ATP, pH 7.5, room temperature 20 min; enhanced by gene product of sfp; against empty vector control
Method: as §1, §2, §3

[5] = molecular target: T2, pimeloyl-[acp] methyl ester methylesterase of SEQ ID NO: 1 (Escherichia coli, UniProt P13001); assay: Pimeloyl-[acp] methyl ester methylesterase enzyme activity assay, glutaryl-CoA methyl ester to glutaryl-CoA (LC-MS); details: 5 mM glutaryl-CoA methyl ester, 10 μM enzyme, 25 mM Tris.HCl pH 7.0, 30° C., 1 h
T2 construct: His-tag (C); made in house; host or cells: E. coli BL21[DE3], pET28b+ vector
Method: A sequence encoding an C-terminal His-tag was added to the gene from Escherichia coli encoding the pimeloyl-[acp] methyl ester methylesterase of SEQ ID NO: 1 (see FIG. 8) such that C-terminal HIS tagged pimeloyl-[acp] methyl ester methylesterase could be produced. The resulting modified gene was cloned into a pET28b+ expression vector under control of the T7 promoter and the expression vector was transformed into a BL21[DE3] E. coli host. The resulting recombinant E. coli strain was cultivated at 37° C. in a 500 mL shake flask culture containing 100 mL LB media and antibiotic selection pressure, with shaking at 230 rpm. Each culture was induced overnight at 18° C. using 0.3 mM IPTG.
The pellet from each induced shake flask culture was harvested via centrifugation. Each pellet was resuspended and lysed via sonication. The cell debris was separated from the supernatant via centrifugation. The pimeloyl-[acp] methyl ester methylesterase was purified from the supernatant using Ni-affinity chromatography, buffer exchanged and concentrated into 20 mM HEPES buffer (pH=7.5) via ultrafiltration and stored at 4° C.
Enzyme activity assays converting glutaryl-CoA methyl ester to glutaryl-CoA were performed in triplicate in a buffer composed of a final concentration of 25 mM Tris.HCl buffer (pH=7.0) and 5 [mM] glutaryl-CoA methyl ester. […] The formation of glutaryl-CoA was quantified via LC-MS.

T2 sequence (P13001 whole entry): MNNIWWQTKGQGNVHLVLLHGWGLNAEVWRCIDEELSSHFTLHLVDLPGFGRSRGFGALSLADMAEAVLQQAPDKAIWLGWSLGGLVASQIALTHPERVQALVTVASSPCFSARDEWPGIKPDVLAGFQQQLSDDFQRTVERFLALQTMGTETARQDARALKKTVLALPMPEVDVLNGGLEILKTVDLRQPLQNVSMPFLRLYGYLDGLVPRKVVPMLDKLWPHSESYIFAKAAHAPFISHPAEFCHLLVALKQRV
T1 sequence (B2HN69 whole entry): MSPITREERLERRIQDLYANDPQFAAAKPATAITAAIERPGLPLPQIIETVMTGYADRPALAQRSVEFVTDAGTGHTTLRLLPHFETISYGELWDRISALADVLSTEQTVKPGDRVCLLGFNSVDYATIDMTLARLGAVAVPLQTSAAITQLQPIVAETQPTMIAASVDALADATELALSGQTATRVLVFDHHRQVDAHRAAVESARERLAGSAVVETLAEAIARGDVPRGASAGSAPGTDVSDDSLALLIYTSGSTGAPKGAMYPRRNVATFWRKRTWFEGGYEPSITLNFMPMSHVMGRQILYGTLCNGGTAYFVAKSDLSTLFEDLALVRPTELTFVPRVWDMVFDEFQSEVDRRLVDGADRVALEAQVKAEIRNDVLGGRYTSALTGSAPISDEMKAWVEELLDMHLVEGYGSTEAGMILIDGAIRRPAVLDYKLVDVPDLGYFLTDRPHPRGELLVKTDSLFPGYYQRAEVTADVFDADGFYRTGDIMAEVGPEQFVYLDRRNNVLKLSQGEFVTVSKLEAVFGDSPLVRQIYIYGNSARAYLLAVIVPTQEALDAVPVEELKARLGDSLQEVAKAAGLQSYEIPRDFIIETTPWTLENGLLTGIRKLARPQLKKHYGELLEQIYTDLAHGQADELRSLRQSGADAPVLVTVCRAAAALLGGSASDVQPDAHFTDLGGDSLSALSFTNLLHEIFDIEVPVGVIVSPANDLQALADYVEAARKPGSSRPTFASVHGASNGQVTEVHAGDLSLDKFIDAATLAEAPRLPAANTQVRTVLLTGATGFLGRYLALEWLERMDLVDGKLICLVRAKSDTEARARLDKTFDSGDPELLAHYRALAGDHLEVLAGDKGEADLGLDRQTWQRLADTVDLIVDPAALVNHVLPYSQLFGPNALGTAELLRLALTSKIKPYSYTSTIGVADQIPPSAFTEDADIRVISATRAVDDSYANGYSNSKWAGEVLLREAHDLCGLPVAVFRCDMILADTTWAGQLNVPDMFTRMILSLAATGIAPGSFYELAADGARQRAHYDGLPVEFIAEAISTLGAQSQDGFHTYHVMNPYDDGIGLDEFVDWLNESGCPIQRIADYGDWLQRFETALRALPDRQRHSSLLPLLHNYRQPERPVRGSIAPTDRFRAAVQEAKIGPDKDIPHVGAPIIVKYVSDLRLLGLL

COC(=O)CCCC(=O)O [glutarate methyl ester]
acceptance as substrate, forming glutarate semialdehyde methyl ester [1]: accepted glutarate methyl ester as substrate
acceptance as substrate, forming glutarate semialdehyde methyl ester [2]: accepted glutarate methyl ester as substrate
acceptance as substrate, forming glutarate semialdehyde methyl ester [3]: accepted glutarate methyl ester as substrate
acceptance as substrate, forming glutarate semialdehyde methyl ester [4]: accepted glutarate methyl ester as substrate

COC(=O)CCCC(=O)SCCNC(=O)CCNC(=O)C(O)C(C)(C)COP(=O)(O)OP(=O)(O)OCC1OC(n2cnc3c(N)ncnc32)C(O)C1OP(=O)(O)O (centres unmarked) [glutaryl-CoA methyl ester]
acceptance as substrate, forming glutaryl-CoA [5]: accepted glutaryl-CoA methyl ester as substrate
